Assay results from ChEMBL document CHEMBL5046270, “A Selective and Orally Bioavailable Quinoline-6-Carbonitrile-Based Inhibitor of CDK8/19 Mediator Kinase with Tumor-Enriched Pharmacokinetics” (J Med Chem, 2022).
Activity calls are given as the source filed them. The rule behind the calls is not given here.

Assays:
[1] = Inhibition of CDK8/CDK19 in MV4-11 cells and measured after 7 days by Spectra max iD5 microplate reader; assay type: cell-based, Homo sapiens
[2] = Inhibition of NF kappa B dependent CDK8/CDK19 in HEK293 cell incubated for 3 hrs in presence of TNF-alpha by Spectra max microtitre plate reader; assay type: cell-based; details: Homo sapiens, HEK293, 3 h
[3] = target: CDK8/Cyclin C (Homo sapiens, UniProt P49336); assay: Inhibition of kinase tracer 236 binding to His tagged recombinant human CDK8/cyclin C incubated for 60 min FRET based LanthaScreen Eu-Kinase binding assay; assay type: protein-complex assay
CDK8/Cyclin C, sequence (P49336 whole entry): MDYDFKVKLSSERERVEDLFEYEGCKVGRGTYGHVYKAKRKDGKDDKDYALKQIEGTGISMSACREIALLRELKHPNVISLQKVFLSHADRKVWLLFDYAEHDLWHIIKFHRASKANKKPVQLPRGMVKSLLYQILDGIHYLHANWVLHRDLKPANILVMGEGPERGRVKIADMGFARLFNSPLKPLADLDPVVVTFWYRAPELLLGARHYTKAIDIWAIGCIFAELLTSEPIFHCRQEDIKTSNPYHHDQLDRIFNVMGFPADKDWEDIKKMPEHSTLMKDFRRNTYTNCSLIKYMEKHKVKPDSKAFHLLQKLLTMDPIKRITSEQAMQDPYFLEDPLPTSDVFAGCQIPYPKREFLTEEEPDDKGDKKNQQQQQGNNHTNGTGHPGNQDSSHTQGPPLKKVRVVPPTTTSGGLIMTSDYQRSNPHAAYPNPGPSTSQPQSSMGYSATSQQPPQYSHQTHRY
CDK8/Cyclin C, sequence (P24863 whole entry, further chain): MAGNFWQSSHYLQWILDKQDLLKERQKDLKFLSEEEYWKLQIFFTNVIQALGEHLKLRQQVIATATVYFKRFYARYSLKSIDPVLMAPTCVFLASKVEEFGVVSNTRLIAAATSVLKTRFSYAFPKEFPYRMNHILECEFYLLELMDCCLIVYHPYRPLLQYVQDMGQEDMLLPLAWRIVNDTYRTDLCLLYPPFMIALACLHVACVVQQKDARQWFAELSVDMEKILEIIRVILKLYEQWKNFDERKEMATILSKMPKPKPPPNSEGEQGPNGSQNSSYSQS

[4] = target: T1, Cyclin-C/Cyclin-dependent kinase 19 (Homo sapiens) (UniProt Q9BWU1+P24863); assay: Binding affinity to recombinant human CDK19/cyclinC assessed as rate constant (koff) by TR FRET based assay; assay type: protein-complex assay
[5] = tested on: HEK293; assay: Downregulation of CDK8/19 in HEK293 cells assessed as reversal of mRNA expression level in MYC gene at 1 uM for 3 hr pretreatment and measured after 3 hr post wash-off by qt-PCR analysis; assay type: functional, cell-based; details: Homo sapiens, time 6.0 hrs
[6] = Metabolic stability in human hepatocyte assessed as intrinsic clearance at 2 uM measured per 10^6 by LC-MS/MS analysis; assay type: ADME, cell-based; details: hepatocytes
[7] = target: T2, CDK8/Cyclin C (Homo sapiens) (UniProt P49336+P24863); assay: Binding affinity to kinase tracer 236 binding to His tagged recombinant human CDK8/cyclinC assessed as rate constant (koff) by TR FRET based assay; assay type: protein-complex assay
[8] = target: T2, CDK8/Cyclin C (Homo sapiens); assay: Binding affinity to kinase tracer 236 binding to His tagged recombinant human CDK8/cyclinC assessed as rate constant (kon) by TR FRET based assay; assay type: protein-complex assay
[9] = target: T1, Cyclin-C/Cyclin-dependent kinase 19 (Homo sapiens); assay: Binding affinity to recombinant human CDK19/cyclinC assessed as half life by TR FRET based assay; assay type: protein-complex assay
[10] = target: T2, CDK8/Cyclin C (Homo sapiens); assay: Binding affinity to kinase tracer 236 binding to His tagged recombinant human CDK8/cyclinC assessed as mean residence time by TR FRET based assay; assay type: protein-complex assay
[11] = tested on: HEK293; assay: Downregulation of CDK8/19 in HEK293 cells assessed as reversal of mRNA expression level in KCTD12 gene at 1 uM for 3 hr pretreatment and measured after 3 hr post wash-off by qt-PCR analysis; assay type: functional, cell-based; details: Homo sapiens, time 6.0 hrs
[12] = target: T1, Cyclin-C/Cyclin-dependent kinase 19 (Homo sapiens); assay: Binding affinity to recombinant human CDK19/cyclinC assessed as rate constant (kon) by TR FRET based assay; assay type: protein-complex assay
[13] = target: T2, CDK8/Cyclin C (Homo sapiens); assay: Binding affinity to kinase tracer 236 binding to His tagged recombinant human CDK8/cyclinC assessed as half life by TR FRET based assay; assay type: protein-complex assay
[14] = target: T1, Cyclin-C/Cyclin-dependent kinase 19 (Homo sapiens); assay: Binding affinity to recombinant human CDK19/cyclinC assessed as mean residence time by TR FRET based assay; assay type: protein-complex assay

| SMILES | IC50 [1] [nM] | IC50 [2] [nM] | IC50 [3] [nM] | other results |
| --- | --- | --- | --- | --- |
| CC(=O)N1CCN(C(=O)c2ccc3cc(CCNc4ccnc5ccc(C#N)cc45)ccc3c2)CC1 | 297 | 184 | 12 |  |
| CNC(=O)c1ccc2nccc(NCCc3ccccc3)c2c1 |  | > 5000 | > 1000 |  |
| CN(CCCNC(=O)OC(C)(C)C)C(=O)c1ccc2cc(CCNc3ccnc4ccc(C#N)cc34)ccc2c1 | 173 | 208 | 9.3 |  |
| N#Cc1ccc2nccc(NCCc3ccc4cc(C(=O)N5CCSCC5)ccc4c3)c2c1 | 93 | 138 | 9.1 |  |
| Ic1ccc2nccc(NCCc3ccccc3)c2c1 |  | > 5000 | 212 |  |
| NC(=O)c1ccc2nccc(NCCc3ccccc3)c2c1 |  | > 5000 | > 1000 |  |
| CN(CCCN)C(=O)c1ccc2cc(CCNc3ccnc4ccc(C#N)cc34)ccc2c1 | 297 | 118 | 9.2 |  |
| N#Cc1ccc2nccc(NCCc3ccc4cc(C(=O)N5CC[S+]([O-])CC5)ccc4c3)c2c1 | 222 | 160 | 5.8 |  |
| CN1CCN(C(=O)c2ccc3cc(CCNc4ncnc5ccc(C#N)cc45)ccc3c2)CC1 [SENEXIN B] |  |  |  | K [4]: 0.00628 s⁻¹; Activity [5]: inactive; CLH [6]: 0.0198 mL/min; K [7]: 0.00325 s⁻¹; K [8]: 1.65 10^6/M/s; T1/2 [9]: 1.84 min; MRT [10]: 5.13 min; Activity [11]: inactive; K [12]: 2.13 10^6/M/s; T1/2 [13]: 3.55 min; MRT [14]: 2.65 min |
| c1ccc(CCNc2ccnc3ccccc23)cc1 |  | > 5000 | > 1000 |  |
| Brc1ccc2nccc(NCCc3ccccc3)c2c1 |  | > 5000 | 183 |  |
| FC(F)(F)c1ccc2nccc(NCCc3ccccc3)c2c1 |  | > 5000 | 356 |  |
| CC(C)(C)OC(=O)NCCCN1CCN(C(=O)c2ccc3cc(CCNc4ccnc5ccc(C#N)cc45)ccc3c2)CC1 | 167 | 81 | 8.1 |  |
| N#Cc1ccc2nccc(NCCc3ccc4cc(C(=O)N5CCN(CCCN)CC5)ccc4c3)c2c1 | 305 | 870 | 6.5 |  |
| Nc1ccc2nccc(NCCc3ccccc3)c2c1 |  | > 5000 | > 1000 |  |
| CC(C)(C)OC(=O)N1CCN(C(=O)c2ccc3cc(CCNc4ccnc5ccc(C#N)cc45)ccc3c2)CC1 | 209 | 137 | 19 |  |
| N#Cc1ccc2ncnc(NCCc3ccccc3)c2c1 | 994 | 349 | 35 |  |
| Clc1ccc2nccc(NCCc3ccccc3)c2c1 |  | > 5000 | 44 |  |
| N#Cc1ccc2nccc(NCCc3ccc4cc(C(=O)N5CCS(=N)(=O)CC5)ccc4c3)c2c1 | 271 | 244 | 4.6 |  |
